{"source": "patent US10954461B2", "about": "“Methods for preventing microbial growth and microbiologically influenced corrosion in a biodegradable and/or renewable fuel, hydraulic fluid and/or lubricant” (TRIBORON INTERNATIONAL AB, priority 2016, dated 2021)", "key": {"microbial growth": {"system": "microbial growth", "conditions": "lowest tested concentration (1:2000, 44 ppm boric acid, 7.5 ppm boron); HVO and RME with lake water; initial results", "experimental": "20 samples were prepared, 10×50 g of each fuel type, HVO and RME respectively. For each fuel type, there were four boron concentrations and a reference. One of each concentration and fuel was placed in a heating chamber at 45° C. and in front of a window subjected to sunlight. Water was taken from a lake nearby and stored in the heat chamber for an amount of time to enhance microorganism content and activity. 15 g of lake water was added to each sample, and the contaminated samples stored one week in 45° C. and exposed to sunlight. A stable solution of inorganic boron in ethanol was added to each sample in different dilutions, corresponding to the theoretical concentrations in the samples shown in table 3: [table]"}, "[1]": {"conditions": "based on available in vitro data; SCCS opinion 2010; cited from earlier work"}}}
{"molecule": "OB(O)O", "note": "[boric acid]", "values": [{"measurement": "effect on microbial growth in contaminated samples", "setting": "microbial growth", "result": "marked effect"}, {"measurement": "mutagenicity", "setting": "[1]", "result": "non-mutagenic"}]}
